Assay results taken from article PMC11111404, “Discovery of potent small-molecule inhibitors of lipoprotein(a) formation” (Nature, 2024).

What was measured:
Plg mRNA = experiment: Rat hepatic Plg mRNA after oral dosing; format: in vivo; conditions: rats, daily oral dosing
Experimental: Male Sprague Dawley rats (Charles River, average body weight 310 g, aged eight to nine weeks old) were housed in cages with a standard light cycle (12-h light, 12-h dark), at room temperature (22 ± 4 °C), with a relative humidity of 30–70%. Rats were identified by numbers on the cage cards. After arrival, rats were fed on a normal diet (Harlan Teklad diet 2014) and randomized to treatment groups (n = 5 per group) by baseline plasma plasminogen concentration and activity using a BRAT. LSN3441732 and LY3473329 were administered QD orally at three dose levels (3.7, 12.3 and 37 mg kg^−1; 3.2, 10.5 and 31.6 mg kg^−1 per dose, respectively) or vehicle (10 ml kg^−1, 1% HEC, 0.25% Tween-80, Antifoam) for four days. Terminal blood was drawn under general anaesthesia 24 h after the day-4 oral dose. Plasma samples were collected via the abdominal aorta into a premeasured anticoagulant BD Vacutainer used for blood collection (2.7 ml, buffered sodium citrate). […]
RNA was isolated from the liver using the PureLink RNA Mini Kit (Invitrogen) and quantified using the NanoDrop spectrophotometer (Thermo Fisher Scientific). […] Quantitative PCR was conducted using TaqMan reagents and primers (Plg Rn00585167_m1, Gapdh Rn99999916_s1). Relative quantitation was calculated using the comparative Ct method. Statistical significance was evaluated using JMP v.16.1.0 software (SAS).

[1] = molecular target: T1, K-2 to K-3 domains of rat plasminogen (Rattus norvegicus, UniProt Q01177); experiment: ITC binding to rat plasminogen K-2 to K-3
T1 construct: made in house
T1 sequence (Q01177 184-352 limits assumed): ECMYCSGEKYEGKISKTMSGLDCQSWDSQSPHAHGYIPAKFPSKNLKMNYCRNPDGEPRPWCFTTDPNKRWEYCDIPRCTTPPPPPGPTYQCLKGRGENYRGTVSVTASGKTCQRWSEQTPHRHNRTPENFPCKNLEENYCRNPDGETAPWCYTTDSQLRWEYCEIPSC
Experimental: (§1) The nucleotide sequence encoding the human LPA gene (NP_005568.2) was inserted into a mammalian expression vector containing a cytomegalovirus promoter. Protein expression was performed by transient transfection of human embryonic kidney 293 (HEK293) cells cultured in serum-free medium. The culture medium was collected five days after transfection and human apo(a) protein was purified using L-lysine affinity chromatography. Nucleotide sequences encoding various KIV domains of human apo(a) and human and rat plasminogen were inserted into a pET21a Escherichia coli expression vector. […] All protein concentrations were determined by A280. […] The microsyringe was loaded with a solution of the respective compounds, with the concentration measured by quantitative nuclear magnetic resonance, and was inserted into the calorimetric cell prefilled with the respective recombinant proteins of known concentration in ITC buffer. […] Thermodynamic parameters were calculated using the basic equation of thermodynamics (ΔG = ΔH - TΔS = -RTlnKd), where ΔG, ΔH and ΔS are the changes in free energy, enthalpy and entropy of binding, respectively; Kd is the equilibrium dissociation constant; T is the absolute temperature ([…]); and R is the gas constant (1.987 cal mol^-1 K^-^1). […]

[2] = molecular target: T2, K-2 to K-3 domains of human plasminogen (Homo sapiens, UniProt P00747); experiment: ITC binding to human plasminogen K-2 to K-3
T2 construct: that for the K-2 to K-3 domains of human plasminogen; made in house
T2 sequence (P00747 184-352 limits assumed): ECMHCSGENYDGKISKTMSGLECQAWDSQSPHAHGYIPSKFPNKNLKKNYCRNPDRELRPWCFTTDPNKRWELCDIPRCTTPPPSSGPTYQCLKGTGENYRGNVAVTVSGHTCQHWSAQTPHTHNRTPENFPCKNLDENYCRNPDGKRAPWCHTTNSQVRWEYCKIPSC
Experimental: as §1

plasmin activity = system: plasmin activity; set-up: method as in PMID 37638695; conditions: human phase 1 study; cited from earlier work

## Cl.Cl.O=C(Nc1cccc(C[C@H](C(=O)O)[C@H]2CCNC2)c1)Nc1cccc(C[C@H](C(=O)O)[C@H]2CCNC2)c1 [LSN3441732]
Plg mRNA
  levels of hepatic Plg mRNA: unchanged
[1]
  Kd: < 10 nM
  fold higher affinity for rat than human plasminogen K-2 to K-3: more than 100 fold
[2]
  Kd: 1600 nM

## O=C(O)[C@@H](Cc1cccc(CN(Cc2cccc(C[C@H](C(=O)O)[C@H]3CCNC3)c2)Cc2cccc(C[C@H](C(=O)O)[C@H]3CCNC3)c2)c1)[C@H]1CCNC1 [LY3473329]
Plasmin activity
  plasmin activity at oral doses lowering Lp(a): without affecting plasmin activity
